Experiments:
T4 polynucleotide kinase = target: T1, T4 polynucleotide kinase (Enterobacteria phage T4, UniProt P06855); test: T4 polynucleotide kinase assay; assay type: biochemical; conditions: 100 μM
T1 construct: purchased Takara Bio (Tokyo, Japan)
Description: Pol α was purified from calf thymus by immuno-affinity column chromatography, as described by Tamai et al.. Recombinant rat pol β was purified from E. coli JMpβ5, as described by Date et al.. The human pol γ catalytic gene was cloned into pFastBac. Histidine-tagged enzyme was expressed using the BAC-TO-BAC HT Baculovirus Expression System according to the supplier’s manual (Life Technologies, MD, USA) and purified using ProBoundresin (Invitrogen Japan, Tokyo, Japan). Human pols δ and ɛ were purified by nuclear fractionation of human peripheral blood cancer cells (Molt-4) using the second subunit of pols δ and ɛ-conjugated affinity column chromatography, respectively. A truncated form of human pol η (residues 1–511) tagged with His6 at its C-terminal was expressed in E. coli cells and purified as described by Kusumoto et al.. […]
The activities of calf primase of pol α, human telomerase, T7 RNA polymerase, mouse IMP dehydrogenase, human DNA topoisomerases I and II, T4 polynucleotide kinase and bovine DNase I were measured in standard assays according to the manufacturer’s specifications, as described by Tamiya-Koizumi et al., Oda et al., Nakayama et al., Mizushina et al., Ishimaru et al., Soltis et al. and Lu et al., respectively.

[1] = target: T2, human immunodeficiency virus type-1 (HIV-1) reverse transcriptase (Human immunodeficiency virus type 1 group M subtype B, UniProt P03366); test: HIV-1 reverse transcriptase assay; assay type: biochemical; conditions: 100 μM
T2 construct: HIV-1 reverse transcriptase (recombinant); purchased Worthington Biochemical Corp. (Freehold, NJ, USA)
Description: Pol α was purified from calf thymus by immuno-affinity column chromatography, as described by Tamai et al.. Recombinant rat pol β was purified from E. coli JMpβ5, as described by Date et al.. The human pol γ catalytic gene was cloned into pFastBac. Histidine-tagged enzyme was expressed using the BAC-TO-BAC HT Baculovirus Expression System according to the supplier’s manual (Life Technologies, MD, USA) and purified using ProBoundresin (Invitrogen Japan, Tokyo, Japan). Human pols δ and ɛ were purified by nuclear fractionation of human peripheral blood cancer cells (Molt-4) using the second subunit of pols δ and ɛ-conjugated affinity column chromatography, respectively. A truncated form of human pol η (residues 1–511) tagged with His6 at its C-terminal was expressed in E. coli cells and purified as described by Kusumoto et al.. A recombinant mouse pol ι tagged with His6 at its C-terminal was expressed and purified by Ni-NTA column chromatography as described elsewhere (Masutani et al., in preparation). […]
The compounds were dissolved in distilled dimethyl sulfoxide (DMSO) at various concentrations and sonicated for 30 sec. […] Activity without the inhibitor was considered 100%, and the remaining activity at each concentration of the inhibitor was determined relative to this value. […]

T1 sequence (P06855 whole entry): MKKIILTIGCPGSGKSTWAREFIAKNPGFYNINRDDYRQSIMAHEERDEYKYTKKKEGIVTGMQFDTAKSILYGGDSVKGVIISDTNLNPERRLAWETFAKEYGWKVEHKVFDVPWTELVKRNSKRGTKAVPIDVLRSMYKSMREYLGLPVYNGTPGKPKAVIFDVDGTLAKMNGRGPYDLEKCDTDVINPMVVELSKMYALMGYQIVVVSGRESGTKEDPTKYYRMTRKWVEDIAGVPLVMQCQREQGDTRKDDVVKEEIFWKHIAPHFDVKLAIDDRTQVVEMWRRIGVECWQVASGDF

**Q.** Which “effect on T4 polynucleotide kinase activity” value (T4 polynucleotide kinase) does the source give for `C/C=C/c1occ(C(=O)c2c(OC)cc(OC)cc2C(=O)OC)c(=O)c1OC` [compound 1, 3-O-methylfunicone] here?
**A.** did not influence

**Q.** What about the “effect on HIV-1 reverse transcriptase activity” value [1] of the same compound?
**A.** did not influence
